Data: patent US20240336608A1, “IL4I1 INHIBITORS AND METHODS OF USE” (Merck Sharp & Dohme LLC, priority 2023, published 2024)

Molecular target: T1, recombinant IL4I1 (Homo sapiens, UniProt Q96RQ9)
T1 construct: purchased R&D Systems 5684-AO-020
T1 sequence (Q96RQ9 22-567): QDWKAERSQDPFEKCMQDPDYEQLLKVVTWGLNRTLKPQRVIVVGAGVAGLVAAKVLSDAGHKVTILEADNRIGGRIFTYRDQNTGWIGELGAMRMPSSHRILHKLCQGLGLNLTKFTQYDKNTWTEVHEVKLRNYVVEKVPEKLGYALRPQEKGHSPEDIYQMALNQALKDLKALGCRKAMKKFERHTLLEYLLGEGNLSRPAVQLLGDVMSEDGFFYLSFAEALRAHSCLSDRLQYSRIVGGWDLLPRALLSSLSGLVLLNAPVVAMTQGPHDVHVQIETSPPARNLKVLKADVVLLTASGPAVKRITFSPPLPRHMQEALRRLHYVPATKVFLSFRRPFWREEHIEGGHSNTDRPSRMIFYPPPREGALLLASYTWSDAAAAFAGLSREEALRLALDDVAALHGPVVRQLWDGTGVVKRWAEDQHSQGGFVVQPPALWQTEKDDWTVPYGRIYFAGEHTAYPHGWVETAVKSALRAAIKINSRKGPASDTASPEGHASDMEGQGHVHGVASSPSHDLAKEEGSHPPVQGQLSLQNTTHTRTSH
Test: IL4I1 Enzymatic Assay (Amplex Red/HRP coupled detection of H2O2, fluorescence)
Assay type: biochemical
Conditions: 1 nM recombinant IL4I1; four-hour pre-incubation with compound; 1 mM each Phe, Tyr, Trp; ten-point titration
Protocol: Interleukin 4 inducible protein 1 (IL4I1) is an L-amino oxidase that catalyzes the oxidation of aromatic residues (Phe, Trp and Tyr): L-amino acid+H2O+O2→2-oxo acid+NH3+H2O2. Equal molar of H2O2 and the corresponding alpha-ketoacid are produced when IL4I1 and substrate are added. In this assay, the hydrogen peroxide generated by IL4I1 is then detected through a coupled reaction with Amplex Red (10-acetyl-3,7-dihydroxyphenoxazine) and […] (HRP) to produce Resorufin product that could be detected in the form of fluorescence signals. The assessment of the inhibitory effect of small molecules (EC50) on IL4I1 is measured by the effectiveness of the compounds to inhibit the production of H202.
Using this assay, the potency (EC50) of each compound was determined from a ten-point (1:3 serial dilution) titration curve using the following outlined procedure. To each well of a black flat-bottom Greiner (Cat #781076) 384 well-plate, 125 nL of compound (0.5% DMSO in final assay volume of 25 μL) was dispensed, followed by the addition of 12.5 μL of 1× assay buffer (50 mM Hepes 7.0 and 0.005% Tween20 (Sigma, Cat #P8341; low peroxide grade)) containing 2 nM of recombinant IL4I1 (R&D Systems, Cat #5684-AO-020). Plates were placed in an ambient temperature humidified chamber for a four-hour pre-incubation with compound. Subsequently, each reaction was initiated by the addition of 12.5 μL 1× assay buffer containing 2 mM of each aromatic amino acids (Phe/Tyr/Trp), 0.1 mM Amplex Red and 2 U/mL of HRP. The final reaction in each well of 25 μL consists of 1 nM of IL4I1, 1 mM of each residue (Phe, Tyr and Trp), 0.05 mM Amplex Red and 1 U/mL of HRP. It should be noted that the concentrations of Amplex Red and HRP used here are in excess such that the conversion of H2O2 to Resorufin product occurs instantaneously and non-rate limiting. Reactions were allowed to proceed for 120 minutes followed by fluorescence readout on a Spectramax with the following set parameters: 544 nm excitation/590 nm emission, 570 nm cutoff (EnVision is an alternative reader). Dose-response curves were generated by plotting percent effect (% inhibition; Y-axis) vs. Log10 compound concentrations (X-axis). EC50 values were calculated using a non-linear regression, four-parameters sigmoidal dose-response model and are shown in Table 16.

Row | Compound | EC50
1 | Cc1ccc(-n2cc(C(=O)NC(C)c3nnc(-c4ccccc4)s3)nn2)c(C)n1 (single isomer, unassigned) [Example 262, 1-(2,6-dimethylpyridin-3-yl)-N-(1-(5-phenyl-1,3,4-thiadiazol-2-yl)ethyl)-1H-1,2,3-triazole-4-carboxamide] | 85 nM
2 | N#CCCCn1cc(C(=O)NCc2nnc(-c3ccccc3)s2)nn1 [Example 84, 1-(3-cyanopropyl)-N-((5-phenyl-1,3,4-thiadiazol-2-yl)methyl)-1H-1,2,3-triazole-4-carboxamide] | 52 nM
3 | O=C(NCc1nnc(-c2ccccc2)s1)c1cn(CCN2CCNC2=O)nn1 [Example 125, 1-(2-(2-oxoimidazolidin-1-yl)ethyl)-N-((5-phenyl-1,3,4-thiadiazol-2-yl)methyl)-1H-1,2,3-triazole-4-carboxamide] | 453 nM
4 | N#CCCCCn1cc(C(=O)NCc2nnc(-c3ccccc3)s2)nn1 [Example 90, 1-(4-cyanobutyl)-N-((5-phenyl-1,3,4-thiadiazol-2-yl)methyl)-1H-1,2,3-triazole-4-carboxamide] | 27 nM
5 | O=C(NCc1nnc(-c2ccccc2)s1)c1cn(Cc2cc[nH]n2)nn1 [Example 156, 1-((1H-pyrazol-3-yl)methyl)-N-((5-phenyl-1,3,4-thiadiazol-2-yl)methyl)-1H-1,2,3-triazole-4-carboxamide] | 8 nM
6 | CC[C@@H](c1ccc(F)cc1)n1cc(C(=O)NCc2nnc(-c3ccccc3)s2)nn1 [Example 257, (S)-1-(1-(4-fluorophenyl)propyl)-N-((5-phenyl-1,3,4-thiadiazol-2-yl)methyl)-1H-1,2,3-triazole-4-carboxamide] | 19 nM
7 | Cn1nnc(C(=O)NCc2nnc(-c3ccccc3)s2)c1F [Example 289, 5-fluoro-1-methyl-N-((5-phenyl-1,3,4-thiadiazol-2-yl)methyl)-1H-1,2,3-triazole-4-carboxamide] | 301 nM
8 | O=C(NCc1nnc(-c2ccccc2)s1)c1cn(C2CC(F)(F)C2)nn1 [Example 61, 1-(3,3-difluorocyclobutyl)-N-((5-phenyl-1,3,4-thiadiazol-2-yl)methyl)-1H-1,2,3-triazole-4-carboxamide] | 68 nM
9 | O=C(NCc1nnc(-c2ccccc2)s1)c1csc(Cc2ccccc2)n1 [Example 16, 2-benzyl-N-((5-phenyl-1,3,4-thiadiazol-2-yl)methyl)thiazole-4-carboxamide] | 84 nM
10 | O=C(NCc1nnc(-c2ccccc2)s1)c1cn([C@H]2CO[C@H]3[C@@H]2OC[C@H]3O)nn1 [Example 5, 1-[(3S,3aR,6R,6aR)-6-hydroxy-2,3,3a,5,6,6a-hexahydrofuro[3,2-b]furan-3-yl]-N-[(5-phenyl-1,3,4-thiadiazol-2-yl)methyl]triazole-4-carboxamide] | 164 nM
11 | O=C(NCc1nnc(-c2ccccc2)s1)c1cn(CC2(F)CC2)nn1 [Example 150, 1-((1-fluorocyclopropyl)methyl)-N-((5-phenyl-1,3,4-thiadiazol-2-yl)methyl)-1H-1,2,3-triazole-4-carboxamide] | 4 nM

Further molecules by falling EC50, results first:

Row | EC50 | Compound
12 | 859 nM | Cc1ncc(-n2cc(C(=O)NCc3nnc(-c4ccccc4)s3)nn2)c(C)n1 [Example 280, 1-(2,4-dimethylpyrimidin-5-yl)-N-((5-phenyl-1,3,4-thiadiazol-2-yl)methyl)-1H-1,2,3-triazole-4-carboxamide]
13 | 276 nM | Cc1nonc1C(=O)NCc1nnc(-c2ccccc2)s1 [Example 55, 4-methyl-N-[(5-phenyl-1,3,4-thiadiazol-2-yl)methyl]-1,2,5-oxadiazole-3-carboxamide]
14 | 226 nM | CC(C)(O)Cn1cc(C(=O)NCc2nnc(-c3ccccc3)s2)nn1 [Example 201, 1-(2-hydroxy-2-methylpropyl)-N-((5-phenyl-1,3,4-thiadiazol-2-yl)methyl)-1H-1,2,3-triazole-4-carboxamide]
15 | 209 nM | O=C(NCc1ccc(-c2ccccc2)nn1)c1cn(C2COC2)nn1 [Example 290, 1-(oxetan-3-yl)-N-((6-phenylpyridazin-3-yl)methyl)-1H-1,2,3-triazole-4-carboxamide]
16 | 146 nM | O=C(NCc1nnc(-c2ccccc2)s1)c1cn([C@H]2CCC[C@@H]2O)nn1 [Example 209, 1-((1S,2S)-2-hydroxycyclopentyl)-N-((5-phenyl-1,3,4-thiadiazol-2-yl)methyl)-1H-1,2,3-triazole-4-carboxamide]
17 | 114 nM | O=C(NCc1nnc(-c2ccccc2)s1)c1cn(C2CCCOC2)nn1 (stereo not drawn) [Example 177, N-((5-phenyl-1,3,4-thiadiazol-2-yl)methyl)-1-(tetrahydro-2H-pyran-3-yl)-1H-1,2,3-triazole-4-carboxamide]
18 | 73 nM | O=C(NCc1nnc(-c2ccccc2)s1)c1cn(C2CS(=O)(=O)C2)nn1 [Example 307, 1-(1,1-dioxidothietan-3-yl)-N-((5-phenyl-1,3,4-thiadiazol-2-yl)methyl)-1H-1,2,3-triazole-4-carboxamide]
19 | 62 nM | O=C(NCc1nnc(-c2ccccc2)s1)c1cc2c(s1)CCC2 [Example 6, N-[(5-phenyl-1,3,4-thiadiazol-2-yl)methyl]-5,6-dihydro-4H-cyclopenta[b]thiophene-2-carboxamide]
20 | 36 nM | N#CC1(n2cc(C(=O)NCc3nnc(-c4ccccc4)s3)nn2)CC1 [Example 160, 1-(1-cyanocyclopropyl)-N-((5-phenyl-1,3,4-thiadiazol-2-yl)methyl)-1H-1,2,3-triazole-4-carboxamide]
21 | 33 nM | Cc1ccc(-n2cc(C(=O)NC(C)c3nnc(-c4ccccc4)s3)nn2)c(C)n1 (single isomer, unassigned) [Example 263, 1-(2,6-dimethylpyridin-3-yl)-N-(1-(5-phenyl-1,3,4-thiadiazol-2-yl)ethyl)-1H-1,2,3-triazole-4-carboxamide]
22 | 31 nM | O=C(NCc1nnc(-c2ccccc2)s1)c1cn(C(F)(F)F)nn1 [Example 274, N-((5-phenyl-1,3,4-thiadiazol-2-yl)methyl)-1-(trifluoromethyl)-1H-1,2,3-triazole-4-carboxamide]
23 | 16 nM | Cc1ccc(-n2cc(C(=O)NCc3nnc(-c4ccncc4)s3)nn2)c(C)n1 [Example 265, 1-(2,6-dimethylpyridin-3-yl)-N-((5-(pyridin-4-yl)-1,3,4-thiadiazol-2-yl)methyl)-1H-1,2,3-triazole-4-carboxamide]
24 | 9 nM | CC(C)(C)OC(=O)N1CC(n2cc(C(=O)NCc3nnc(-c4ccccc4)s3)nn2)C1 [Example 69, tert-butyl 3-(4-(((5-phenyl-1,3,4-thiadiazol-2-yl)methyl)carbamoyl)-1H-1,2,3-triazol-1-yl)azetidine-1-carboxylate]
25 | 7 nM | Cc1ccc(-n2cc(C(=O)NCc3cc(-c4ccccc4)on3)nn2)c(C)n1 [Example 237, 1-(2,6-dimethylpyridin-3-yl)-N-((5-phenylisoxazol-3-yl)methyl)-1H-1,2,3-triazole-4-carboxamide]
26 | 6 nM | O=C(NCc1cc(-c2ccccc2)on1)c1cn(CC(F)(F)F)nn1 [Example 232, N-((5-phenylisoxazol-3-yl)methyl)-1-(2,2,2-trifluoroethyl)-1H-1,2,3-triazole-4-carboxamide]
27 | 5 nM | Cc1nc(N)ccc1-n1cc(C(=O)NCc2nnc(-c3ccccc3)s2)nn1 [Example 342, 1-(6-amino-2-methylpyridin-3-yl)-N-((5-phenyl-1,3,4-thiadiazol-2-yl)methyl)-1H-1,2,3-triazole-4-carboxamide]
